Source: patent US9163011B2, “Oxazine derivatives and their use in the treatment of disease” (NOVARTIS AG, priority 2011, dated 2015)

How the values were obtained:
[1] = target: Human BACE-1 (Homo sapiens (Human), UniProt P56817); assay: Test 1: Inhibition of Human BACE-1; format: biochemical; settings: recombinant BACE-1, pH 4.5, 1 hour preincubation
Procedure: Test 1: Inhibition of Human BACE-1
(§1) Recombinant BACE-1 (extracellular domain, expressed in baculovirus and purified using standard methods) at 0.1 to 1 nM concentrations is incubated with the test compound at various concentrations for 1 hour at room temperature in 100 mM acetate buffer, pH 4.5, containing 0.1% CHAPS. Activity was measured using a final concentration of 3 μM of the fluorescence-quenched substrate Q-C(HSO3)-Ile-Asp-Leu-Ala-Val-Leu-Asp-HN—CH2—CH2-Mca, where Q=2-nitro-5-amino benzoic acid and Mca=7-methoxy-4-coumarinyl acetic acid. Catalytic turnover was monitored in a Spectramax Gemini fluorescence plate reader (Molecular Devices) in black 96-well microplates using excitation/emission wavelength of 325 nm and 400 nm, respectively. Fluorescence increase was followed for 15 min, in 1 minute's intervals. The fluorescence/time slopes were calculated from duplicate wells and from wells without inhibitor and the IC50 values were calculated using a logistic 4-parameter model.

[2] = target: Human BACE-2 (Homo sapiens (Human), UniProt Q9Y5Z0); assay: Test 2: Inhibition of Human BACE-2; format: biochemical; settings: recombinant BACE-2, pH 4.5, 1 hour preincubation
Procedure: Test 2: Inhibition of Human BACE-2
as §1, with “BACE-2” for “BACE-1”

[3] = Test 4: Inhibition of Cellular Release of Amyloid Peptide 1-40; format: cell-based, Chinese hamster; settings: Cricetulus griseus; CHO cells with human APP, 24 hours with compound; read-out: Test 4 Amyloid-β1-40 release IC50
Procedure: The cells are plated at a density of 8000 cells/well into 96-well microtiter plates and cultivated for 24 hours in DMEM cell culture medium containing 10% FCS. The test compound is added to the cells at various concentrations, and the cells are cultivated for 24 hours in the presence of the test compound. […] The potency of the compound is calculated from the percentage of inhibition of amyloid peptide release as a function of the test compound concentration.

Human BACE-1, sequence (P56817 46-457): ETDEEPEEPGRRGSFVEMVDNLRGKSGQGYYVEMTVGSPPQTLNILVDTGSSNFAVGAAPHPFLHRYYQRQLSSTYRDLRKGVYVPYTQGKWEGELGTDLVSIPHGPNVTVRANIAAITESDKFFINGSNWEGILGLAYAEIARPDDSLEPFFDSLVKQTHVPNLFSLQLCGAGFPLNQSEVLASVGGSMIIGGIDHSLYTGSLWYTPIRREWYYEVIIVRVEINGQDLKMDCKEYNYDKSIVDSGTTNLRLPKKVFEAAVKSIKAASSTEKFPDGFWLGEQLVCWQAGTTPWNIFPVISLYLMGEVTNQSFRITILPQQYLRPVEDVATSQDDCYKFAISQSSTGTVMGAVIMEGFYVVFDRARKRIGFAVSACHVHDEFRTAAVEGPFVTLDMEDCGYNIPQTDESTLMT
Human BACE-2, sequence (Q9Y5Z0 63-473): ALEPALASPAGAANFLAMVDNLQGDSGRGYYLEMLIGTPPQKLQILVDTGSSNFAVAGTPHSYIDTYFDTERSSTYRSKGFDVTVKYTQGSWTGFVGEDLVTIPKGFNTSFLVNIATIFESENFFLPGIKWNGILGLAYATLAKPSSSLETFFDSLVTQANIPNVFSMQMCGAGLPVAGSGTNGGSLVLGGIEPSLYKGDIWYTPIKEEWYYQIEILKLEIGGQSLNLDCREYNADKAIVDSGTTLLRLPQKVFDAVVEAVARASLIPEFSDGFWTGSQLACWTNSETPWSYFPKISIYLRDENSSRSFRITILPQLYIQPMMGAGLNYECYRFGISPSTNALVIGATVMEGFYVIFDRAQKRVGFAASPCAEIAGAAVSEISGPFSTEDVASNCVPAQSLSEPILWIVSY

C[C@]1(c2nc(NC(=O)c3ncc(C#CCO)cc3Cl)ccc2F)N=C(N)OCC1(F)F [Example 32, 3-Chloro-5-(3-hydroxy-prop-1-ynyl)-pyridine-2-carboxylic acid [6-((R)-2-amino-5,5-difluoro-4-methyl-5,6-dihydro-4H-[1,3]oxazin-4-yl)-5-fluoro-pyridin-2-yl]-amide]
IC50 [1]: 60 nM
IC50 [2]: 930 nM
IC50 [3]: 19 nM

COCCc1cnc(C(=O)Nc2ccc(F)c([C@@]3(C)N=C(N)OCC3(F)F)n2)c(N)n1 [Example 29, 3-Amino-5-(2-methoxy-ethyl)-pyrazine-2-carboxylic acid [6-((R)-2-amino-5,5-difluoro-4-methyl-5,6-dihydro-4H-[1,3]oxazin-4-yl)-5-fluoro-pyridin-2-yl]-amide]
IC50 [1]: 150 nM
IC50 [2]: 5600 nM
IC50 [3]: 70 nM

C[C@]1(c2nc(NC(=O)c3ncc(OCC(F)F)nc3N)ccc2F)N=C(N)OCC1(F)F [Example 11, 3-Amino-5-(2,2-difluoro-ethoxy)-pyrazine-2-carboxylic acid [6-((R)-2-amino-5,5-difluoro-4-methyl-5,6-dihydro-4H-[1,3]oxazin-4-yl)-5-fluoro-pyridin-2-yl]-amide]
IC50 [1]: 830 nM
IC50 [2]: 2900 nM
IC50 [3]: 440 nM

CC(F)(F)c1nc(N)c(C(=O)Nc2ccc(F)c([C@@]3(C)N=C(N)OCC3(F)F)n2)nc1Cl [Example 34, 3-Amino-6-chloro-5-(1,1-difluoro-ethyl)-pyrazine-2-carboxylic acid [6-((R)-2-amino-5,5-difluoro-4-methyl-5,6-dihydro-4H-[1,3]oxazin-4-yl)-5-fluoro-pyridin-2-yl]-amide]
IC50 [1]: > 10000 nM
IC50 [2]: > 10000 nM
IC50 [3]: 6500 nM

C[C@]1(c2nc(NC(=O)c3ncc(Cl)cc3N)ccc2F)N=C(N)OCC1(F)F [Example 19, 3-Amino-5-chloro-pyridine-2-carboxylic acid [6-((R)-2-amino-5,5-difluoro-4-methyl-5,6-dihydro-4H-[1,3]oxazin-4-yl)-5-fluoro-pyridin-2-yl]-amide]
IC50 [1]: 60 nM
IC50 [2]: 48 nM
IC50 [3]: 45 nM

COCCOc1cnc(C(=O)Nc2ccc(F)c([C@@]3(C)N=C(N)OCC3(F)F)n2)c(N)n1 [Example 16, 3-Amino-5-(2-methoxy-ethoxy)-pyrazine-2-carboxylic acid [6-((R)-2-amino-5,5-difluoro-4-methyl-5,6-dihydro-4H-[1,3]oxazin-4-yl)-5-fluoro-pyridin-2-yl]amide]
IC50 [1]: 120 nM
IC50 [2]: 8900 nM

C[C@]1(c2nc(NC(=O)c3ncc(OCC(F)(F)F)nc3N)ccc2F)N=C(N)OCC1(F)F [Example 10, 3-Amino-5-(2,2,2-trifluoro-ethoxy)pyrazine-2-carboxylic acid [6-((R)-2-amino-5,5-difluoro-4-methyl-5,6-dihydro-4H-[1,3]oxazin-4-yl)-5-fluoro-pyridin-2-yl]-amide]
IC50 [1]: 590 nM
IC50 [2]: 3800 nM
IC50 [3]: 600 nM

CCOc1cnc(C(=O)Nc2ccc(F)c([C@@]3(C)N=C(N)OCC3(F)F)n2)c(Cl)c1 [Example 27, 3-Chloro-5-ethoxy-pyridine-2-carboxylic acid [6-((R)-2-amino-5,5-difluoro-4-methyl-5,6-dihydro-4H-[1,3]oxazin-4-yl)-5-fluoro-pyridin-2-yl]-amide]
IC50 [1]: 290 nM
IC50 [2]: 420 nM
IC50 [3]: 450 nM

C[C@]1(c2nc(NC(=O)c3ncc(OCCCl)nc3N)ccc2F)N=C(N)OCC1(F)F [Example 23, 3-Amino-5-(2-chloro-ethoxy)-pyrazine-2-carboxylic acid [6-((R)-2-amino-5,5-difluoro-4-methyl-5,6-dihydro-4H-[1,3]oxazin-4-yl)-5-fluoro-pyridin-2-yl]-amide]
IC50 [1]: 8700 nM
IC50 [2]: > 10000 nM
IC50 [3]: 2900 nM

[2H]C([2H])([2H])C([2H])([2H])Oc1cnc(C(=O)Nc2ccc(F)c([C@@]3(C)N=C(N)OCC3(F)F)n2)c(N)n1 [Example 28, 3-Amino-5-(penta-deutero-ethoxy)-pyrazine-2-carboxylic acid [6-((R)-2-amino-5,5-difluoro-4-methyl-5,6-dihydro-4H-[1,3]oxazin-4-yl)-5-fluoro-pyridin-2-yl]-amide]
IC50 [1]: 1900 nM
IC50 [2]: 10000 nM
IC50 [3]: 840 nM

C[C@]1(c2nc(NC(=O)c3ncc(F)cc3N)ccc2F)N=C(N)OCC1(F)F [Example 18, 3-Amino-5-fluoro-pyridine-2-carboxylic acid [6-((R)-2-amino-5,5-difluoro-4-methyl-5,6-dihydro-4H-[1,3]oxazin-4-yl)-5-fluoro-pyridin-2-yl]-amide]
IC50 [1]: 330 nM
IC50 [2]: 120 nM
IC50 [3]: 88 nM

C[C@]1(c2nc(NC(=O)c3ccc(C#N)cn3)ccc2F)N=C(N)OCC1(F)F [Example 35, 5-Cyano-pyridine-2-carboxylic acid [6-((R)-2-amino-5,5-difluoro-4-methyl-5,6-dihydro-4H-[1,3]oxazin-4-yl)-5-fluoro-pyridin-2-yl]-amide]
IC50 [1]: 54 nM
IC50 [2]: 260 nM
IC50 [3]: 14 nM

Cc1cc(C#N)cnc1C(=O)Nc1ccc(F)c([C@@]2(C)N=C(N)OCC2(F)F)n1 [Example 1, 5-Cyano-3-methyl-pyridine-2-carboxylic acid [6-((R)-2-amino-5,5-difluoro-4-methyl-5,6-dihydro-4H-[1,3]oxazin-4-yl)-5-fluoro-pyridin-2-yl]-amide]
IC50 [1]: 12 nM
IC50 [2]: 66 nM
IC50 [3]: 7 nM

CC(F)(F)c1cnc(C(=O)Nc2ccc(F)c([C@@]3(C)N=C(N)OCC3(F)F)n2)c(N)n1 [Example 37, 3-Amino-5-(1,1-difluoro-ethyl)-pyrazine-2-carboxylic acid [6-((R)-2-amino-5,5-difluoro-4-methyl-5,6-dihydro-4H-[1,3]oxazin-4-yl)-5-fluoro-pyridin-2-yl]-amide]
IC50 [1]: 64 nM
IC50 [2]: > 10000 nM
IC50 [3]: 310 nM

CC(F)(F)c1cnc(C(=O)Nc2ccc(F)c([C@@]3(C)N=C(N)OCC3(F)F)n2)c(Cl)c1 [Example 36, 3-Chloro-5-(1,1-difluoro-ethyl)-pyridine-2-carboxylic acid [6-((R)-2-amino-5,5-difluoro-4-methyl-5,6-dihydro-4H-[1,3]oxazin-4-yl)-5-fluoro-pyridin-2-yl]-amide]
IC50 [3]: 58 nM

C[C@]1(c2nc(NC(=O)c3ncc(OCC(F)F)cc3Cl)ccc2F)N=C(N)OCC1(F)F [Example 24, 3-Chloro-5-(2,2-difluoro-ethoxy)-pyridine-2-carboxylic acid [6-((R)-2-amino-5,5-difluoro-4-methyl-5,6-dihydro-4H-[1,3]oxazin-4-yl)-5-fluoro-pyridin-2-yl]-amide]
IC50 [1]: 240 nM
IC50 [2]: 4500 nM
IC50 [3]: 250 nM

COCC[C@@]1(c2nc(NC(=O)c3ncc(C#N)cc3C)ccc2F)N=C(N)OCC1(F)F [Example 5]
IC50 [3]: > 10000 nM

C[C@]1(c2nc(NC(=O)c3ncc(OCCCF)nc3N)ccc2F)N=C(N)OCC1(F)F [Example 12, 3-Amino-5-(3-fluoro-propoxy)-pyrazine-2-carboxylic acid [6-((R)-2-amino-5,5-difluoro-4-methyl-5,6-dihydro-4H-[1,3]oxazin-4-yl)-5-fluoro-pyridin-2-yl]-amide]
IC50 [1]: 1200 nM
IC50 [2]: > 10000 nM
IC50 [3]: 310 nM

C[C@]1(c2nc(NC(=O)c3ncc(OCCF)nc3N)ccc2F)N=C(N)OCC1(F)F [Example 25, 3-Amino-5-(2-fluoro-ethoxy)-pyrazine-2-carboxylic acid [6-((R)-2-amino-5,5-difluoro-4-methyl-5,6-dihydro-4H-[1,3]oxazin-4-yl)-5-fluoro-pyridin-2-yl]-amide]
IC50 [1]: 570 nM
IC50 [2]: > 10000 nM
IC50 [3]: 480 nM

COCC#Cc1cnc(C(=O)Nc2ccc(F)c([C@@]3(C)N=C(N)OCC3(F)F)n2)c(N)c1 [Example 14, 3-Amino-5-(3-methoxy-prop-1-ynyl)-pyridine-2-carboxylic acid [6-((R)-2-amino-5,5-difluoro-4-methyl-5,6-dihydro-4H-[1,3]oxazin-4-yl)-5-fluoro-pyridin-2-yl]-amide]
IC50 [3]: 540 nM

COc1cnc(C(=O)Nc2ccc(F)c([C@@]3(C)N=C(N)OCC3(F)F)n2)c(C)c1 [Example 13, 5-Methoxy-3-methyl-pyridine-2-carboxylic acid [6-((R)-2-amino-5,5-difluoro-4-methyl-5,6-dihydro-4H-[1,3]oxazin-4-yl)-5-fluoro-pyridin-2-yl]-amide]
IC50 [3]: 82 nM
